The values that follow come from patent publication US9517233B2, “Local cochlear application of statins for stimulating neurite regrowth in the cochlea” (Northwestern University, priority 2012, dated 2016).

“Also recorded” adds a separate entry of the source.

One assay relates to spiral ganglion neurons. The assay is described as follows: In vitro phenotypic screening assay of neurite length in spiral ganglion cultures. The following applies: for lowest effective dose for stimulating neurite growth (neurite length dose response) / effect on neurite length: spiral ganglion cultures; for lowest effective dose for stimulating neurite growth (neurite length dose response): cumulative percent histograms of neurite length vs DMSO control, highest dose tested 25 μM for Pravastatin; for effect on neurite length at 10 μM: media containing compound at 10 μM, DMSO negative control, 4 replicate cultures; for effect on neurite length: compound in culture media. The class given is cell-based, mouse. The source says: The in vitro phenotypic screen for spiral ganglion neurons is designed to identify both survival promoting and neurite promoting compounds. The screening procedure focuses on the survival, neurite initiation and neurite elongation steps of the experimental model (FIG. 5A-C). […] Newborn mouse pups served as a source for preparing primary cultures of the spiral ganglia from 16 cochleas. From these cochleas, 192 cultures in a 384 well plate that enables screening of 45 compounds and 3 controls for each dissection.
The screening approach preferably uses automated imaging and computer assisted data analysis. […] Populations of neurites are measured and graphed as cumulative percent histograms of neurite length. In these graphs, a shift to the right means that the population had longer neurites.
CD-1 mice (Charles River Laboratories, Wilmington Mass. [US]), age newborn, were used for cultures that test neurite length; postnatal day 1-2 mice were used for cultures that test survival. Mice were anesthetized by cooling at −80° C. for 4 minutes and euthanized by aseptic decapitation.
Cultures were prepared by a modification of the procedure previously reported and modified (Whitlon et al., Neuroscience 138, 653-662 (2006); Lie et al., Neuroscience 169, 855-862 (2010); Whitlon et al. Neuroscience 146, 833-840 (2007); Whitlon et al., Neuroscience 161, 227-235 (2009)). To increase the number of cultures produced from one dissecting session while maintaining consistency in the preparations, the number of animals was increased to 8 (16 cochleas, a practical limit) and the volume of the cultures was decreased to 50 μl. Cells derived from the equivalent of […] ganglia were plated in each well. These changes allowed the material from each dissection session to be cultured in 192 wells of a standard 384 well plate. Each dissection session could accommodate 3 controls and 45 compounds in quadruplicate. The cochlear capsule was opened and the tissue was treated with Dispase, 5 units/ml. After washing, the cochlea was removed from its capsule. The cochlear epithelium, spiral ligament and stria were dissected away. […] Both were then diluted in medium and added to the wells 22 hours after plating. Cultures were fixed 24 hours later with 4% paraformaldehyde in 0.1M sodium phosphate buffer, pH 7.2 for 45 minutes. Conditions were tested in quadruplicate. […] Negative controls were the vehicles DMSO (0.17%) and water (0.17%).
Fixed cultures were immunolabeled for the neural βIII tubulin using the mouse monoclonal antibody TuJ1 and Alexa Fluor 594 tagged secondary antibody as described for immunofluorescent labeling (Whitlon et al. Neuroscience 161, 227-235 (2009)). Nuclei were visualized with Nuclear Yellow. The labeled cultures were preserved with one drop of DAKO fluorescent mounting medium in each well.
The immunolabeled 384 well plates were loaded into an Image Xpress automatic imager for image acquisition.

Assay [1] has as its system PTS noise exposed guinea pigs. Briefly: Guinea pig model of PTS, auditory brainstem response (ABR) thresholds after noise exposure. The assay is classed as in vivo. The following applies: left ear infused with 50 μM Fluvastatin, 250 μL over 28 days by miniosmotic pump, from noise exposure on; hearing measured in contralateral right ear. From the text: A testing method with a guinea pig model of PTS was developed for this purpose. Compounds were introduced into the left ear of the subject with a cannula attached to a miniosmotic pump. Because the cannula is physically within the cochlea, it had the possibility of interfering with sound transfer in the cochlea, and thereby interfering with auditory brain response (ABR) measurements. For this reason, the compound was delivered via cannula to the left ear, but tested for its effect in the contralateral ear, taking advantage of the connection between cochlear fluids and the cerebral spinal fluid. Animals were subjected to an sound injury causing PTS. Fluvastatin was delivered in vivo to the left ear at 50 times the concentration that was effective for stimulating neurite growth in vitro and ABRs were evaluated in the contralateral, right cochleas. […] The compound was first evaluated for the ability to provide a protective effect from hearing loss attributed to high level noise, wherein the compound was delivered at the same time as the noise exposure and for 4 weeks thereafter. […]
Drug efficiency was tested in guinea pigs, 200-500 g in body weight. […] Baseline cochlear function was determined with auditory brainstem responses. Sound levels to evoke a visual ABR response were determined for pure tones at selected frequencies between 2 and 32 kHz and for acoustic clicks. […]

As to `CC(C)c1c(C(=O)Nc2ccccc2)c(-c2ccccc2)c(-c2ccc(F)cc2)n1CC[C@@H](O)C[C@@H](O)CC(=O)O` [Atorvastatin, (3R,5R)-7-[2-(4-fluorophenyl)-3-phenyl-4-(phenylcarbamoyl)-5-(propan-2-yl)-1H-pyrrol-1-yl]-3,5-dihydroxyheptanoic acid], the “lowest effective dose for stimulating neurite growth (neurite length dose response)” value (“lowest effective dose” below) in the assay with spiral ganglion neurons came out at 10 µM. With `COCc1c(C(C)C)nc(C(C)C)c(/C=C/[C@@H](O)C[C@@H](O)CC(=O)O)c1-c1ccc(F)cc1` [Cerivastatin], the “effect of geranylgeraniol on the statin's stimulation of neurite length” value in the assay on spiral ganglion neurons (media containing both statin (Cerivastatin 10 μM or Fluvastatin 5 μM) and geranylgeraniol (10 μM)) is “effectively blocked the stimulatory effect”. Besides, in the assay with spiral ganglion neurons, the “effect on neurite length at 10 μM” value is reported as “increased neurite length” and the “lowest effective dose” value came to 1 µM. Also, the “neurite growth compared with positive control H1152” value with spiral ganglion neurons (screen of NIH Clinical Collection, FIG. 11A) is given as “stimulated neurite growth as well as H1152”. Turning to `CC(C)n1c(/C=C/[C@H](O)C[C@H](O)CC(=O)O)c(-c2ccc(F)cc2)c2ccccc21` (stereo in doubt) [Fluvastatin, (3S,5R,6E)-7-[3-(4-fluorophenyl)-1-(propan-2-yl)-1H-indol-2-yl]-3,5-dihydroxyhept-6-enoic acid], the “lowest effective dose” value in the assay on spiral ganglion neurons worked out at 1 µM. Besides, the “protection from hearing loss / permanent threshold shift (ABR threshold change)” value in assay [1] is “effective protection by preventing hearing loss; also recorded: PTS injury could not be induced”. Turning to `O=c1[nH]ccc2c(S(=O)(=O)N3CCCNCC3)cccc12` [Hydroxyl Fasudil], the “effect on neurite length” value in the assay on spiral ganglion neurons is recorded as “stimulated neurite length”. The same measure, in the same setting: the entry for `Cc1cncc2cccc(S(=O)(=O)N3CCCNC[C@@H]3C)c12` [H1152, 4-methyl-5-{[(2S)-2-methyl-1,4-diazepan-1-yl]sulfonyl}isoquinoline] is “stimulate neurite length; also recorded: increased neurite lengths”; for `O=S(=O)(c1cccc2cnccc12)N1CCCNCC1` [Fasudil] it is “stimulated neurite length”. For the compound `CCC(C)(C)C(=O)O[C@H]1C[C@@H](C)C=C2C=C[C@H](C)[C@H](CC[C@@H]3C[C@@H](O)CC(=O)O3)[C@H]21` [Simvastatin, (1S,3R,7S,8S,8aR)-8-{2-[(2R,4R)-4-hydroxy-6-oxooxan-2-yl]ethyl}-3,7-dimethyl-1,2,3,7,8,8a-hexahydronaphthalen-1-yl 2,2-dimethylbutanoate], the “lowest effective dose” value in the assay on spiral ganglion neurons was 5 µM.

As for `CC[C@H](C)C(=O)O[C@H]1C[C@H](O)C=C2C=C[C@H](C)[C@H](CC[C@@H](O)C[C@@H](O)CC(=O)O)[C@H]21` [Pravastatin], the “lowest effective dose” value with spiral ganglion neurons is over 25 µM. On to `CC[C@H](C)C(=O)O[C@H]1C[C@@H](C)C=C2C=C[C@H](C)[C@H](CC[C@@H]3C[C@@H](O)CC(=O)O3)[C@H]21` [Lovastatin, (1S,3R,7S,8S,8aR)-8-{2-[(2R,4R)-4-hydroxy-6-oxooxan-2-yl]ethyl}-3,7-dimethyl-1,2,3,7,8,8a-hexahydronaphthalen-1-yl (2S)-2-methylbutanoate], for which the “lowest effective dose” value in the assay on spiral ganglion neurons turned out to be 5 µM. Regarding `O=C(O)C[C@H](O)C[C@H](O)/C=C/c1c(C2CC2)nc2ccccc2c1-c1ccc(F)cc1` [Pitavastatin, (3R,5S,6E)-7-[2-cyclopropyl-4-(4-fluorophenyl)quinolin-3-yl]-3,5-dihydroxyhept-6-enoic acid], the “measured lengths of neurites compared with positive control H1152” value in the assay with spiral ganglion neurons (Pitavastatin at 2 μM or higher, H1152 16.5 μM) is “as long or longer”. Moreover, in the assay on spiral ganglion neurons, the “effect on neurite length” value was “increase neurite length; also recorded: effective up to the highest dose tested” and the “lowest effective dose” value was 2 µM. Consider `CC(C)=CCC/C(C)=C/CC/C(C)=C/CC/C(C)=C/CO` [geranylgeraniol], for which the “effect on neurite length at 10 μM” value in the assay on spiral ganglion neurons was “no effect upon growth of neurite length”.
